Experimental data taken from ChEMBL document CHEMBL2417377, “Hit-to-lead optimization and kinase selectivity of imidazo[1,2-a]quinoxalin-4-amine derived JNK1 inhibitors” (Bioorg Med Chem Lett, 2013).

Columns and labels:
Details in all cases: PC-3
[1] = target: Tyrosine-protein kinase Fyn (Homo sapiens) (UniProt P06241); assay: Inhibition of FYN in human PC3 cell lysates at 10 uM using desthiobiotin-tagged ATP probe AX9989 followed by trypsinization by LC/MS analysis
[2] = target: Proto-oncogene tyrosine-protein kinase Src (Homo sapiens) (UniProt P12931); assay: Inhibition of SRC in human PC3 cell lysates at 10 uM using desthiobiotin-tagged ATP probe AX9989 followed by trypsinization by LC/MS analysis
Sequence of Proto-oncogene tyrosine-protein kinase Src (Homo sapiens) (P12931 2-536 limits assumed): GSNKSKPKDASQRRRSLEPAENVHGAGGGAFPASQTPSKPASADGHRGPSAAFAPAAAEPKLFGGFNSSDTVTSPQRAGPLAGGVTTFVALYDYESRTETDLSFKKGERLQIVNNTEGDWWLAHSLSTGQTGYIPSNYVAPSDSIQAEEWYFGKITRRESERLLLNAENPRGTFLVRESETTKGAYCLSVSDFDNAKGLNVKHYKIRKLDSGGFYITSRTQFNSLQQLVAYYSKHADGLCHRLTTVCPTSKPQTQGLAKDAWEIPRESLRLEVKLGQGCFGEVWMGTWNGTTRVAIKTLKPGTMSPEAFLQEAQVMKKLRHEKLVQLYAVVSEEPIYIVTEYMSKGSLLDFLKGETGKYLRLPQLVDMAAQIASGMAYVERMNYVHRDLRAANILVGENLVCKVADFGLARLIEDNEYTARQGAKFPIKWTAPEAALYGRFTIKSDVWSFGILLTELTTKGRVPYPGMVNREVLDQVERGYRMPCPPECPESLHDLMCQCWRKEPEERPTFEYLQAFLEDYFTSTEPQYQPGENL

[3] = target: Epidermal growth factor receptor (Homo sapiens) (UniProt P00533); assay: Inhibition of EGFR in human PC3 cell lysates at 10 uM using desthiobiotin-tagged ATP probe AX9989 followed by trypsinization by LC/MS analysis
[4] = target: Tyrosine-protein kinase CSK (Homo sapiens) (UniProt P41240); assay: Inhibition of CSK in human PC3 cell lysates at 10 uM using desthiobiotin-tagged ATP probe AX9989 followed by trypsinization by LC/MS analysis
Sequence of Tyrosine-protein kinase CSK (Homo sapiens) (P41240 2-450 limits assumed): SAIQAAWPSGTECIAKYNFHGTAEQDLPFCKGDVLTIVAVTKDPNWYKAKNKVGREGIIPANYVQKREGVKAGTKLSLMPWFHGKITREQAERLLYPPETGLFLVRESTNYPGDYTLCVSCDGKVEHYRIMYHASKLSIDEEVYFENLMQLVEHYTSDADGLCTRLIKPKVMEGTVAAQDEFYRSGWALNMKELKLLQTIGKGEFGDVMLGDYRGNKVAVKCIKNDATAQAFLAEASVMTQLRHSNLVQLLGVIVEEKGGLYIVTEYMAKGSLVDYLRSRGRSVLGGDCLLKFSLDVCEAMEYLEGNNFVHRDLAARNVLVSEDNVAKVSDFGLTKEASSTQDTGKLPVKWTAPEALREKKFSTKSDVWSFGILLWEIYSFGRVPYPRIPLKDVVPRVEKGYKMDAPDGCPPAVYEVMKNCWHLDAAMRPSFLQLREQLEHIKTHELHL

[5] = target: Dual specificity protein kinase CLK2 (Homo sapiens) (UniProt P49760); assay: Inhibition of CLK2 in human PC3 cell lysates at 10 uM using desthiobiotin-tagged ATP probe AX9989 followed by trypsinization by LC/MS analysis
Sequence of Dual specificity protein kinase CLK2 (Homo sapiens) (P49760 whole entry, looked up): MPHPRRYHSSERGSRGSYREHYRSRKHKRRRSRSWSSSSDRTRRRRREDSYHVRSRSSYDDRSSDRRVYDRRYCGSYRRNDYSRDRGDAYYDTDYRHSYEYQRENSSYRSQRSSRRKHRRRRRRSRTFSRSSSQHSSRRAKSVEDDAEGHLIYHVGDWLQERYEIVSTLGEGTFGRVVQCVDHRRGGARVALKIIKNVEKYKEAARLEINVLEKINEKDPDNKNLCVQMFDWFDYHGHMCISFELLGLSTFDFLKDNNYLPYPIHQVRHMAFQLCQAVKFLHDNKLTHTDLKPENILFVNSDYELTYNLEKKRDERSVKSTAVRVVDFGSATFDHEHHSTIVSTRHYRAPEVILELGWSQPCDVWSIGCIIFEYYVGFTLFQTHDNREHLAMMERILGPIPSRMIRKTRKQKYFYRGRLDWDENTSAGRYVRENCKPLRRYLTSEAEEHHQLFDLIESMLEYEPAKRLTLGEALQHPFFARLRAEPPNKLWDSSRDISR

[6] = target: Serine/threonine-protein kinase Chk2 (Homo sapiens) (UniProt O96017); assay: Inhibition of CHK2 in human PC3 cell lysates at 10 uM using desthiobiotin-tagged ATP probe AX9989 followed by trypsinization by LC/MS analysis
[7] = target: Phosphatidylinositol 4,5-bisphosphate 3-kinase catalytic subunit beta isoform (Homo sapiens) (UniProt P42338); assay: Inhibition of PIK3CB in human PC3 cell lysates at 10 uM using desthiobiotin-tagged ATP probe AX9989 followed by trypsinization by LC/MS analysis
Sequence of Phosphatidylinositol 4,5-bisphosphate 3-kinase catalytic subunit beta isoform (Homo sapiens) (P42338 whole entry, looked up, canonical isoform): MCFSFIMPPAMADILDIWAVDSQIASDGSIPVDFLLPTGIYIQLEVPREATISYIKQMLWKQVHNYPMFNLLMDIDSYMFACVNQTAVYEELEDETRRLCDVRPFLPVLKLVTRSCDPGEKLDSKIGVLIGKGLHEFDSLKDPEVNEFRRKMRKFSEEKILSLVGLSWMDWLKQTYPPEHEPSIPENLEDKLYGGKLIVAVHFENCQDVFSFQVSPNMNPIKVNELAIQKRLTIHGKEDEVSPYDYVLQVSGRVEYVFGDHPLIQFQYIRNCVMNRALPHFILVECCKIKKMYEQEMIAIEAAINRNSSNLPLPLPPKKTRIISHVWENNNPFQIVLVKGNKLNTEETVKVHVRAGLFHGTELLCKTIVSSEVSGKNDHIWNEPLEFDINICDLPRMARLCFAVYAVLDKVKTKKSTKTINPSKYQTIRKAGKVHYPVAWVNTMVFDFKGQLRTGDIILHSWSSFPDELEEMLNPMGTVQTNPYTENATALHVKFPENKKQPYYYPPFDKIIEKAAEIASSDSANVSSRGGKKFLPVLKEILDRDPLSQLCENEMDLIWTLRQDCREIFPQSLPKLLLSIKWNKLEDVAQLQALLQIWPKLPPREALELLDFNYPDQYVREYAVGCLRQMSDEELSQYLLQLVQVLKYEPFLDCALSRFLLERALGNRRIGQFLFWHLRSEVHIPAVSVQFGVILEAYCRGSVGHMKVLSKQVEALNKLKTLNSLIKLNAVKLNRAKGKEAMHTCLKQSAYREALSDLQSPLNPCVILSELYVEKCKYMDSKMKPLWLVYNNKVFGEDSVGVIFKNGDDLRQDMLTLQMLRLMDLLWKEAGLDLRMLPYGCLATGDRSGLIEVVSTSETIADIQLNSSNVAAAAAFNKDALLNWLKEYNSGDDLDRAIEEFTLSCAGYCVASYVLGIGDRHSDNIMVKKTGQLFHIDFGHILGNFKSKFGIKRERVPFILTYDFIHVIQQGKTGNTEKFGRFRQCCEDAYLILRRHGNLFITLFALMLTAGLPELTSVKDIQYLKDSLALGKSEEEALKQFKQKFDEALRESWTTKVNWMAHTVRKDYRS

[8] = target: Cyclin-dependent kinase 2 (Homo sapiens) (UniProt P24941); assay: Inhibition of CDK2 in human PC3 cell lysates at 10 uM using desthiobiotin-tagged ATP probe AX9989 followed by trypsinization by LC/MS analysis
[9] = target: T1, Phosphatidylinositol 5-phosphate 4-kinase type-2 gamma (Homo sapiens) (UniProt Q8TBX8); assay: Inhibition of PIP4K2C in human PC3 cell lysates at 10 uM using desthiobiotin-tagged ATP probe AX9989 followed by trypsinization by LC/MS analysis
T1 sequence (whole entry): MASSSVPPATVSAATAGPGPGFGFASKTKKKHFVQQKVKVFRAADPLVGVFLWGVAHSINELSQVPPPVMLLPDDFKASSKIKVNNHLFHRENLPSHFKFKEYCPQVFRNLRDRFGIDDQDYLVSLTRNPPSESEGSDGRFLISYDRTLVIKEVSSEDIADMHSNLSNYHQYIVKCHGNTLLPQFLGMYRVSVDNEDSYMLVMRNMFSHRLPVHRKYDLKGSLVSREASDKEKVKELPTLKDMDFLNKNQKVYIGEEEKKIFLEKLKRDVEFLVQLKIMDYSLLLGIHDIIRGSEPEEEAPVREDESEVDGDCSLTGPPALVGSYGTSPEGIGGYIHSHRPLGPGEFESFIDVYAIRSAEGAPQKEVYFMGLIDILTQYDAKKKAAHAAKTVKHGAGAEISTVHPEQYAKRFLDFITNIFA

[10] = target: Serine/threonine-protein kinase WNK2 (Homo sapiens) (UniProt Q9Y3S1); assay: Inhibition of Wnk2 in human PC3 cell lysates at 10 uM using desthiobiotin-tagged ATP probe AX9989 followed by trypsinization by LC/MS analysis
[11] = target: Serine/threonine-protein kinase WNK1 (Homo sapiens) (UniProt Q9H4A3); assay: Inhibition of Wnk1 in human PC3 cell lysates at 10 uM using desthiobiotin-tagged ATP probe AX9989 followed by trypsinization by LC/MS analysis
[12] = target: Macrophage-stimulating protein receptor (Homo sapiens) (UniProt Q04912); assay: Inhibition of RON in human PC3 cell lysates at 10 uM using desthiobiotin-tagged ATP probe AX9989 followed by trypsinization by LC/MS analysis
Sequence of Macrophage-stimulating protein receptor (Homo sapiens) (Q04912 25-304 limits assumed): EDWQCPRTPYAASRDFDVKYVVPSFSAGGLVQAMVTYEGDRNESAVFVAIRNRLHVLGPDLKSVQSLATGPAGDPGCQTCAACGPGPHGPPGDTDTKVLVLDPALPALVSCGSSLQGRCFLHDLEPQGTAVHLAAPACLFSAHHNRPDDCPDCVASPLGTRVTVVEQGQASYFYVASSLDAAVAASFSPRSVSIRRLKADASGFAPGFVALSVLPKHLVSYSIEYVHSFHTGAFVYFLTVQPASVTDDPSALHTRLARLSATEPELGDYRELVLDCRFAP
Sequence of Macrophage-stimulating protein receptor (Homo sapiens) (Q04912 310-1400 limits assumed): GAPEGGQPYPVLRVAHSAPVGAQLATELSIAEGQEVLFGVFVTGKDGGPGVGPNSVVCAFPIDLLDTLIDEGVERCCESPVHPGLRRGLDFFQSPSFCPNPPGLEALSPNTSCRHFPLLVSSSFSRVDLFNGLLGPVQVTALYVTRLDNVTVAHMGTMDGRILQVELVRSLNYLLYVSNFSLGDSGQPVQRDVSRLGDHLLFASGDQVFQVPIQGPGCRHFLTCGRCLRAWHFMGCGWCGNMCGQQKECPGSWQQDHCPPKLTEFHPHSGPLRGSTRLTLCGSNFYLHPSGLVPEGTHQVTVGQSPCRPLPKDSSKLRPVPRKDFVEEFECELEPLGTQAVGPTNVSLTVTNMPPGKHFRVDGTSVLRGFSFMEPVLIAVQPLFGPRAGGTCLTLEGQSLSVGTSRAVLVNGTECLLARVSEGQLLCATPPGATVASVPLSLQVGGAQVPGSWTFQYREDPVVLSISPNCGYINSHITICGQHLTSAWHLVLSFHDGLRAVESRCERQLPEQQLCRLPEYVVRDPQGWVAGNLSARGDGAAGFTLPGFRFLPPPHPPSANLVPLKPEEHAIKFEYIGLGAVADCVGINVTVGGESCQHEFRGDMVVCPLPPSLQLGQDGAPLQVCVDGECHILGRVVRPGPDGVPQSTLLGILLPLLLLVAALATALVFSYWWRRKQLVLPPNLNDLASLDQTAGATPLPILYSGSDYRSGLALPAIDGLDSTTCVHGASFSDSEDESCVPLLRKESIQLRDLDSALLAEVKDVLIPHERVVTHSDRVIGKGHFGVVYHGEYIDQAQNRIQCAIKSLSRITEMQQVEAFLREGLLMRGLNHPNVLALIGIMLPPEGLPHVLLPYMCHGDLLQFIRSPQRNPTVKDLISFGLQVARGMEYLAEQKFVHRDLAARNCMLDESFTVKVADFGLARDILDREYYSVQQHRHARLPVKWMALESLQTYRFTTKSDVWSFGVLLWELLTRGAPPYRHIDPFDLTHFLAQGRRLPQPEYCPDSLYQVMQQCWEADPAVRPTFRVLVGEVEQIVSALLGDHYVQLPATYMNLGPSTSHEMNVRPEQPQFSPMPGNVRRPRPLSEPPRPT

[13] = target: Rho-associated protein kinase 1 (Homo sapiens) (UniProt Q13464); assay: Inhibition of ROCK1 in human PC3 cell lysates at 10 uM using desthiobiotin-tagged ATP probe AX9989 followed by trypsinization by LC/MS analysis
[14] = target: Protein kinase C alpha type (Homo sapiens) (UniProt P17252); assay: Inhibition of PKCalpha in human PC3 cell lysates at 10 uM using desthiobiotin-tagged ATP probe AX9989 followed by trypsinization by LC/MS analysis
[15] = target: Cyclin-dependent kinase 10 (Homo sapiens) (UniProt Q15131); assay: Inhibition of CDK10 in human PC3 cell lysates at 10 uM using desthiobiotin-tagged ATP probe AX9989 followed by trypsinization by LC/MS analysis
Sequence of Cyclin-dependent kinase 10 (Homo sapiens) (Q15131 whole entry): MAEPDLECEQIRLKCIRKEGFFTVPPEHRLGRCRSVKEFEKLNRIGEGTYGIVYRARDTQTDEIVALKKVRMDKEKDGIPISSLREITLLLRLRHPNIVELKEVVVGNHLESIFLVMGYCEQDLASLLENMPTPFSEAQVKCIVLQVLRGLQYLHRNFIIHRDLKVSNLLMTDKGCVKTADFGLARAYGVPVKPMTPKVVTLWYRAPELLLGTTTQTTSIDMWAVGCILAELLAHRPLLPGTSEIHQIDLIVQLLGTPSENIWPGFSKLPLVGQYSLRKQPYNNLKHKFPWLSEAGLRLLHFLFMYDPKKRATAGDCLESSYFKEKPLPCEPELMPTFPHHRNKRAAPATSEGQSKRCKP

[16] = target: T2, Serine/threonine-protein kinase 4 (Homo sapiens) (UniProt Q13043); assay: Inhibition of MST1 in human PC3 cell lysates at 10 uM using desthiobiotin-tagged ATP probe AX9989 followed by trypsinization by LC/MS analysis
T2 sequence (whole entry): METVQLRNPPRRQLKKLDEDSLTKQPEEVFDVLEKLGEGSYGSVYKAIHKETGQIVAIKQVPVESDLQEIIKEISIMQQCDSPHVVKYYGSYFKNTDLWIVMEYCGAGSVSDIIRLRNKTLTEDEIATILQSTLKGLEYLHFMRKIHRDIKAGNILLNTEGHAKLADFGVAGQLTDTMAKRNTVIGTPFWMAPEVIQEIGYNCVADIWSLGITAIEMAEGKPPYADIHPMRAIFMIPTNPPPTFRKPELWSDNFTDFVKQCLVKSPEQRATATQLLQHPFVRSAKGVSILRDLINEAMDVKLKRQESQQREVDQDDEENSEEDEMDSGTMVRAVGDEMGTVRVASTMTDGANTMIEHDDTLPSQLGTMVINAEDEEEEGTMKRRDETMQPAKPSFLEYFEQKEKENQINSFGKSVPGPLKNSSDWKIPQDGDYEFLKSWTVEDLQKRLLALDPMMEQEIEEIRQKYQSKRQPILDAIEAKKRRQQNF

[17] = target: 3-phosphoinositide-dependent protein kinase 1 (Homo sapiens) (UniProt O15530); assay: Inhibition of PDK1 in human PC3 cell lysates at 10 uM using desthiobiotin-tagged ATP probe AX9989 followed by trypsinization by LC/MS analysis
Sequence of 3-phosphoinositide-dependent protein kinase 1 (Homo sapiens) (O15530 whole entry, looked up): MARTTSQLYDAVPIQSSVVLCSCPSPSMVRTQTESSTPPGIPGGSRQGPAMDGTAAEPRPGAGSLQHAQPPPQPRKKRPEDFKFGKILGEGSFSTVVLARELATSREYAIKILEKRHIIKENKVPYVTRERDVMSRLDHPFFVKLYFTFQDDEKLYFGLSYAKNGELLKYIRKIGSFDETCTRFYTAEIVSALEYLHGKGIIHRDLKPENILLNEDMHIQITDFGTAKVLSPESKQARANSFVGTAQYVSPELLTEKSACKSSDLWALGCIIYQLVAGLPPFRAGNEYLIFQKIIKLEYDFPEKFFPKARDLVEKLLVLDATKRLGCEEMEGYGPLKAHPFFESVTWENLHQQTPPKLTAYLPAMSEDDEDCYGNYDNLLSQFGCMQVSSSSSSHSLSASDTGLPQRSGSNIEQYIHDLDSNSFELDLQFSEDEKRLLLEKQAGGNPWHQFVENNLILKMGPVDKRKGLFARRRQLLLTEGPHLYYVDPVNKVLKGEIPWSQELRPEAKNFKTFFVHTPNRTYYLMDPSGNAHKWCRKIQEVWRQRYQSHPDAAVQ

Row | Compound | inhibition [1] | inhibition [2] | inhibition [3] | inhibition [4] | inhibition [5] | inhibition [6] | inhibition [7] | inhibition [8] | inhibition [9] | inhibition [10] | inhibition [11] | inhibition [12] | inhibition [13] | inhibition [14] | inhibition [15] | inhibition [16] | inhibition [17]
1 | O=C(N[C@H](CO)c1ccccc1)c1ccc2nc(N[C@H]3CC[C@H](O)CC3)c3nccn3c2c1 | < 35% | < 35% | < 35% | < 35% | < 35% | < 35% | < 35% | < 35% | 44.5% | < 35% | < 35% | < 35% | < 35% | < 35% | 46.6% | < 35% | < 35%
2 | CC(C)(NC(=O)c1ccc2nc(N[C@H]3CC[C@H](O)CC3)c3nccn3c2c1)c1ccccc1 | < 35% | < 35% | < 35% | < 35% | < 35% | < 35% | < 35% | < 35% | < 35% | < 35% | < 35% | < 35% | < 35% | < 35% | < 35% | < 35% | < 35%
3 | O=C(NC1(Cc2ccc(F)cc2)CC1)c1ccc2nc(N[C@H]3CC[C@H](O)CC3)c3nccn3c2c1 | < 35% | < 35% | < 35% | < 35% | < 35% | < 35% | < 35% | < 35% | < 35% | < 35% | < 35% | < 35% | < 35% | < 35% | < 35% | < 35% | < 35%
4 | O=C(O)c1ccc2nc(N[C@H]3CC[C@H](O)CC3)c3nccn3c2c1 | < 35% | < 35% | < 35% | < 35% | < 35% | < 35% | 37.1% | 59.1% | 90.1% | < 35% | < 35% | < 35% | < 35% | < 35% | 91.3% | < 35% | < 35%
5 | CCC[C@@H](NC(=O)c1ccc2nc(N[C@H]3CC[C@H](O)CC3)c3nccn3c2c1)c1ccccc1 | < 35% | < 35% | < 35% | < 35% | < 35% | < 35% | < 35% | < 35% | < 35% | < 35% | < 35% | < 35% | < 35% | < 35% | < 35% | < 35% | < 35%
6 | C[C@H](NC(=O)c1ccc2nc(N[C@H]3CC[C@H](O)CC3)c3nccn3c2c1)c1ccccc1 | < 35% | < 35% | < 35% | < 35% | < 35% | < 35% | < 35% | < 35% | < 35% | < 35% | < 35% | < 35% | < 35% | < 35% | < 35% | < 35% | < 35%
7 | O=C(NC1(c2ccccc2)CC1)c1ccc2nc(N[C@H]3CC[C@H](O)CC3)c3nccn3c2c1 | < 35% | < 35% | < 35% | < 35% | < 35% | < 35% | < 35% | < 35% | < 35% | < 35% | < 35% | < 35% | < 35% | < 35% | < 35% | < 35% | < 35%
8 | O=C(NC1(c2ccccc2)CCC1)c1ccc2nc(N[C@H]3CC[C@H](O)CC3)c3nccn3c2c1 | < 35% | < 35% | < 35% | < 35% | < 35% | < 35% | < 35% | < 35% | < 35% | < 35% | < 35% | < 35% | < 35% | < 35% | 59.1% | < 35% | < 35%
9 | C[C@@H](NC(=O)c1ccc2nc(N[C@H]3CC[C@H](O)CC3)c3nccn3c2c1)c1ccccc1 | < 35% | < 35% | < 35% | < 35% | < 35% | < 35% | < 35% | < 35% | 51% | < 35% | < 35% | < 35% | < 35% | < 35% | 56.2% | < 35% | < 35%
10 | O=C(NC1(c2ccc(F)cc2)CC1)c1ccc2nc(N[C@H]3CC[C@H](O)CC3)c3nccn3c2c1 | < 35% | < 35% | < 35% | < 35% | < 35% | < 35% | < 35% | < 35% | < 35% | < 35% | < 35% | < 35% | < 35% | < 35% | < 35% | < 35% | < 35%
11 | NC(=O)c1ccc2nc(N[C@H]3CC[C@H](O)CC3)c3nccn3c2c1 | < 35% | < 35% | < 35% | < 35% | < 35% | < 35% | < 35% | < 35% | 78.1% | < 35% | < 35% | < 35% | < 35% | < 35% | 90.4% | < 35% | < 35%
